Results as given in patent publication US20240238295A1, “METHOD FOR MODULATING NEUROPATHIES” (priority 2021, published 2024).
Several values for one entry are separate records, joined by “and”; a condition that tells them apart may be missing. Equal entries are not always repeated.

Columns and labels:
Format in all cases: in vivo, rhesus monkey (Macaca mulatta)
[1] = tested on: retinal ischemia/reperfusion (I/R) rhesus monkey model; assay: OCT mean thickness of 9-room retinal EDTRS area, retinal I/R model; details: change vs before modeling; further: test concentration or dose not given here
[2] = tested on: retinal ganglion cells (RGC); assay: Brn3a immunohistochemistry retinal ganglion cell count, retinal ischemia/reperfusion (I/R) model; details: for average loss of RGC cells: I/R eyes vs contralateral OS eye, Day 63 after retinal I/R, oral 63 days; for protection on retinal ganglion cells: retinal I/R, 63 days of treatment; on average loss of RGC cells: test concentration or dose not given here
[3] = tested on: retinal ischemia/reperfusion (I/R) rhesus monkey model; assay: OCT Global mean thickness of retinal nerve fiber layer (RNFL), retinal I/R model; details: change vs before modeling; further: test concentration or dose not given here
[4] = tested on: sural nerve of rhesus monkeys with spontaneous diabetic peripheral neuropathy; assay: Nerve electromyogram: sural sensory nerve conduction velocity, spontaneous DPN model; details: for Change value, sural sensory nerve conduction velocity, Mean ± SD / D58 of administration, sural sensory nerve conduction velocity, Mean ± SD / Baseline value, sural sensory nerve conduction velocity, Mean ± SD: group mean over abnormal sural nerves; for Change value, sural sensory nerve conduction velocity, Mean ± SD / Change value, sural sensory nerve conduction velocity: D58 minus baseline; for D58 of administration, sural sensory nerve conduction velocity, Mean ± SD / D58 of administration, sural sensory nerve conduction velocity: Day 58 of administration; for Baseline value, sural sensory nerve conduction velocity, Mean ± SD: before administration; for Change value, sural sensory nerve conduction velocity / D58 of administration, sural sensory nerve conduction velocity: individual animal; on Change value, sural sensory nerve conduction velocity, Mean ± SD: test concentration or dose not given here; on Change value, sural sensory nerve conduction velocity: test concentration or dose not given here; on D58 of administration, sural sensory nerve conduction velocity, Mean ± SD: test concentration or dose not given here; on D58 of administration, sural sensory nerve conduction velocity: test concentration or dose not given here
[5] = tested on: rhesus monkeys with spontaneous diabetic peripheral neuropathy; assay: Nerve electromyogram: sensory nerve conduction velocity (SCV) of abnormal nerves, spontaneous DPN model; details: for Variation value, sensory nerve conduction velocity, Mean ± SD / Administration D58, sensory nerve conduction velocity, Mean ± SD / Baseline value, sensory nerve conduction velocity, Mean ± SD: group mean over all abnormal nerves; for Variation value, sensory nerve conduction velocity, Mean ± SD / Variation value, sensory nerve conduction velocity: D58 minus baseline; for Administration D58, sensory nerve conduction velocity, Mean ± SD / Administration D58, sensory nerve conduction velocity: Day 58 of administration; for Baseline value, sensory nerve conduction velocity, Mean ± SD / Baseline value, sensory nerve conduction velocity: before administration; for Variation value, sensory nerve conduction velocity / Administration D58, sensory nerve conduction velocity / Baseline value, sensory nerve conduction velocity: individual animal; on Administration D58, sensory nerve conduction velocity, Mean ± SD: test concentration or dose not given here; on Administration D58, sensory nerve conduction velocity: test concentration or dose not given here; on Variation value, sensory nerve conduction velocity, Mean ± SD: test concentration or dose not given here; on Variation value, sensory nerve conduction velocity: test concentration or dose not given here
[6] = OS (non-ischemic contralateral eye), Day 7
[7] = OS (non-ischemic contralateral eye), Day 21
[8] = OS (non-ischemic contralateral eye), Day 35
[9] = OS (non-ischemic contralateral eye), Day 63
[10] = spontaneous DPN, 58 days, P>0.05 vs placebo group

## COc1cc2nc(N3CCN(C(=O)C4COc5ccccc5O4)CC3)nc(N)c2cc1OC (racemic) [DOX, (RS)-2-[4-(2,3-Dihydro-1,4-benzodioxine-2-carbonyl)piperazin-1-yl]-6,7-dimethoxyquinazolin-4-amine]
[1]; OD (IR injury), Day 7
  Δ mean thickness of the 9-room retinal EDTRS area: −26 ± 0 μm
[1]; OD (IR injury), Day 21
  Δ mean thickness of the 9-room retinal EDTRS area: −48 ± 7 μm
[1]; OD (IR injury), Day 35
  Δ mean thickness of the 9-room retinal EDTRS area: −54 ± 10 μm
[1]; OD (IR injury), Day 63
  Δ mean thickness of the 9-room retinal EDTRS area: −58 ± 9 μm
[1]; [6]
  Δ mean thickness of the 9-room retinal EDTRS area: −5 ± 4 μm
[1]; [7]
  Δ mean thickness of the 9-room retinal EDTRS area: −3 ± 4 μm
[1]; [8]
  Δ mean thickness of the 9-room retinal EDTRS area: −3 ± 3 μm
[1]; [9]
  Δ mean thickness of the 9-room retinal EDTRS area: −3 ± 5 μm
[2]
  average loss of RGC cells: 63.9±14.1%
  protection on retinal ganglion cells: weak protection
[3]; OD (I/R injury), Day 35
  Δ Global mean thickness of retinal nerve fiber layer (RNFL): −14 ± 4 μm
[3]; OD (I/R injury), Day 63
  Δ Global mean thickness of retinal nerve fiber layer (RNFL): −21 ± 7 μm
[3]; [8]
  Δ Global mean thickness of retinal nerve fiber layer (RNFL): 1 ± 2 μm
[3]; [9]
  Δ Global mean thickness of retinal nerve fiber layer (RNFL): 1 ± 1 μm

## CC(/C=C1\SC(=S)N(CC(=O)O)C1=O)=C\c1ccccc1 [Epalrestat, epalrestat]
[4]
  Change value, sural sensory nerve conduction velocity, Mean ± SD: 3.2 ± 3.9 m/s
  D58 of administration, sural sensory nerve conduction velocity, Mean ± SD: 42.1 ± 2.1 m/s
  Baseline value, sural sensory nerve conduction velocity, Mean ± SD: 38.9 ± 3.2 m/s
[4]; left sural nerve (abnormal)
  Change value, sural sensory nerve conduction velocity: 6.1 m/s and −1.1 m/s and 5.6 m/s
  D58 of administration, sural sensory nerve conduction velocity: 41.4 m/s and 39.3 m/s and 45.2 m/s
[4]; right sural nerve (abnormal)
  Change value, sural sensory nerve conduction velocity: 9.3 m/s and 0.4 m/s and 2.8 m/s and −0.6 m/s
  D58 of administration, sural sensory nerve conduction velocity: 43.9 m/s and 41.3 m/s and 39.6 m/s and 43.8 m/s
[4]; spontaneous DPN, 58 days of administration
  average increase in sensory nerve conduction velocity (SCV) of abnormal sural nerves vs baseline: 3.2±3.9 m/s
[4]; spontaneous DPN, 58 days, effective = return to normal or increase by 2-5 m/s or more
  nerves determined to be effectively improved in conduction velocity (of abnormal sural nerves): 4/7
[5]
  Variation value, sensory nerve conduction velocity, Mean ± SD: 4.2 ± 4.0 m/s
  Administration D58, sensory nerve conduction velocity, Mean ± SD: 43.6 ± 7.3 m/s
  Baseline value, sensory nerve conduction velocity, Mean ± SD: 38.8 ± 4.7 m/s
[5]; left median nerve (abnormal)
  Variation value, sensory nerve conduction velocity: 1.5 m/s and 8.6 m/s
  Administration D58, sensory nerve conduction velocity: 40 m/s and 51.2 m/s
  Baseline value, sensory nerve conduction velocity: 38.5 m/s and 42.6 m/s
[5]; left sural nerve (abnormal)
  Variation value, sensory nerve conduction velocity: −1.1 m/s and 5.6 m/s and 6.1 m/s
  Baseline value, sensory nerve conduction velocity: 40.4 m/s and 39.6 m/s and 35.3 m/s
[5]; left ulnar nerve (abnormal)
  Variation value, sensory nerve conduction velocity: 8.3 m/s
  Administration D58, sensory nerve conduction velocity: 50.7 m/s
  Baseline value, sensory nerve conduction velocity: 42.4 m/s
[5]; right median nerve (abnormal)
  Variation value, sensory nerve conduction velocity: −0.7 m/s and 4.8 m/s
  Administration D58, sensory nerve conduction velocity: 25.1 m/s and 48.2 m/s
  Baseline value, sensory nerve conduction velocity: 25.8 m/s and 43.4 m/s
[5]; right sural nerve (abnormal)
  Variation value, sensory nerve conduction velocity: 0.4 m/s and 2.8 m/s and −0.6 m/s and 9.3 m/s
  Baseline value, sensory nerve conduction velocity: 40.9 m/s and 36.8 m/s and 44.4 m/s and 34.6 m/s
[5]; right ulnar nerve (abnormal)
  Variation value, sensory nerve conduction velocity: 9.2 m/s
  Administration D58, sensory nerve conduction velocity: 48.4 m/s
  Baseline value, sensory nerve conduction velocity: 39.2 m/s
[5]; spontaneous DPN, administered for 58 days
  mean increase in SCV of nerves with abnormal conduction velocities vs baseline: 4.2±4.0 m/s

## CCCN[C@H]1CCc2nc(N)sc2C1 [PMP, (S)—N6-propyl-4,5,6,7-tetrahydro-1,3-benzothiazole-2,6-diamine]
[1]; OD (IR injury), Day 7
  Δ mean thickness of the 9-room retinal EDTRS area: −50 ± 14 μm
[1]; OD (IR injury), Day 21
  Δ mean thickness of the 9-room retinal EDTRS area: −79 ± 15 μm
[1]; OD (IR injury), Day 35
  Δ mean thickness of the 9-room retinal EDTRS area: −85 ± 14 μm
[1]; OD (IR injury), Day 63
  Δ mean thickness of the 9-room retinal EDTRS area: −88 ± 18 μm
[1]; [6]
  Δ mean thickness of the 9-room retinal EDTRS area: −3 ± 5 μm
[1]; [7]
  Δ mean thickness of the 9-room retinal EDTRS area: −6 ± 3 μm
[1]; [8]
  Δ mean thickness of the 9-room retinal EDTRS area: −2 ± 4 μm
[1]; [9]
  Δ mean thickness of the 9-room retinal EDTRS area: 3 ± 3 μm
[4]
  Change value, sural sensory nerve conduction velocity, Mean ± SD: 0.9 ± 1.1 m/s
  D58 of administration, sural sensory nerve conduction velocity, Mean ± SD: 40.8 ± 1.0 m/s
  Baseline value, sural sensory nerve conduction velocity, Mean ± SD: 39.8 ± 1.0 m/s
[4]; left sural nerve (abnormal)
  Change value, sural sensory nerve conduction velocity: −0.3 m/s and 1.9 m/s
  D58 of administration, sural sensory nerve conduction velocity: 40.2 m/s and 40.4 m/s
[4]; right sural nerve (abnormal)
  Change value, sural sensory nerve conduction velocity: −0.4 m/s and 2.1 m/s and 1.4 m/s
  D58 of administration, sural sensory nerve conduction velocity: 39.6 m/s and 41.1 m/s and 42.6 m/s
[4]; [10]
  improvement in abnormal sural sensory nerve conduction velocity compared with the placebo group: no significant improvement
[5]
  Variation value, sensory nerve conduction velocity, Mean ± SD: 0.4 ± 1.3 m/s
  Administration D58, sensory nerve conduction velocity, Mean ± SD: 39.0 ± 5.1 m/s
  Baseline value, sensory nerve conduction velocity, Mean ± SD: 38.6 ± 4.9 m/s
[5]; left median nerve (abnormal)
  Variation value, sensory nerve conduction velocity: −1.9 m/s and 0.8 m/s
  Administration D58, sensory nerve conduction velocity: 42.1 m/s and 40.0 m/s
  Baseline value, sensory nerve conduction velocity: 44.0 m/s and 39.2 m/s
[5]; left sural nerve (abnormal)
  Variation value, sensory nerve conduction velocity: −0.3 m/s and 1.9 m/s
  Baseline value, sensory nerve conduction velocity: 40.5 m/s and 38.5 m/s
[5]; right median nerve (abnormal)
  Variation value, sensory nerve conduction velocity: −0.6 m/s
  Administration D58, sensory nerve conduction velocity: 25.6 m/s
  Baseline value, sensory nerve conduction velocity: 26.2 m/s
[5]; right sural nerve (abnormal)
  Variation value, sensory nerve conduction velocity: −0.4 m/s and 2.1 m/s and 1.4 m/s
  Baseline value, sensory nerve conduction velocity: 40.0 m/s and 39.0 m/s and 41.2 m/s
[5]; [10]
  improvement in abnormal sensory nerve conduction velocity compared with the placebo group: no significant improvement
[2]
  average loss of RGC cells: 60.0%
  protection on retinal ganglion cells: weak protection
[3]; OD (I/R injury), Day 35
  Δ Global mean thickness of retinal nerve fiber layer (RNFL): −41 ± 8 μm
[3]; OD (I/R injury), Day 63
  Δ Global mean thickness of retinal nerve fiber layer (RNFL): −46 ± 3 μm
[3]; [8]
  Δ Global mean thickness of retinal nerve fiber layer (RNFL): −2 ± 1 μm
[3]; [9]
  Δ Global mean thickness of retinal nerve fiber layer (RNFL): 2 ± 1 μm
